From patent US10947252B2, “Inhibitors of KEAP1-Nrf2 protein-protein interaction” (Janssen Pharmaceutica NV, priority 2018, dated 2021) come the findings set out here.

In assay [1] the test system is Glo-Response ARE-luc2P HEK293 cell line. The experiment in a line: ARE luciferase reporter cell-based assay.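 Also: luciferase signal tracks Nrf2 activation of the ARE once compounds disrupt KEAP1-Nrf2 binding, read with One-Glo reagent, DMSO serving as low control.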 Conditions: Homo sapiens, HEK293, 24 h, average of results obtained. (A reporter such as luciferase makes a cellular process visible.)
The target in assay [2] is Kelch domain of human KEAP1 (321-624 aa) (Homo sapiens (Human), UniProt Q14145). The experiment in a line: KEAP1 KELCH ThermoFluor binding assay.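 Also: Ligand-induced melting temperature shift of E. coli-expressed KEAP1 Kelch protein, Kd estimated from concentration-response curves of ΔTm.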 Conditions: KEAP Kelch […], 1,8-ANS, pH 7.0, average of results obtained, read-out: Tf Kd. In general terms: In DSF a fluorescence change marks the thermal transition of the protein.
Sequence of Kelch domain of human KEAP1 (321-624 aa) (Q14145 321-624): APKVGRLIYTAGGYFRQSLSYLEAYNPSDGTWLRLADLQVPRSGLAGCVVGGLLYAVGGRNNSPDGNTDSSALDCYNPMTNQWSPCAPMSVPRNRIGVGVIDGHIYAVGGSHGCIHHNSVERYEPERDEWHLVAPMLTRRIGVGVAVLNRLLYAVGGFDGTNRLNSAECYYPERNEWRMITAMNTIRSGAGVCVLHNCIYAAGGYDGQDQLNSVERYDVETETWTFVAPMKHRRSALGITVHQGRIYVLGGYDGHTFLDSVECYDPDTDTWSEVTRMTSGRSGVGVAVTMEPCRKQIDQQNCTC

Consider `CC[C@@H]1CN(Cc2nc([C@H](CC(=O)O)c3ccc4c(nnn4C4CC4)c3C)ccc2C)S(=O)(=O)c2cccnc2O1` (single isomer, unassigned) [Example 176, (*R)-3-(1-Cyclopropyl-4-methyl-1H-benzo[d][1,2,3]triazol-5-yl)-3-(6-(((R)-4-ethyl-1,1-dioxido-3,4-dihydro-2H-pyrido[2,3-b][1,4,5]oxathiazepin-2-yl)methyl)-5-methylpyridin-2-yl)propanoic Acid], for which the EC50 (usually the concentration that produces a half-maximal response) in assay [1] turned out to be 31 nM. Moreover, the Kd (in general, a measure of binding affinity in units of concentration) in assay [2] was under 1 nM.

Compound `Cc1ccc([C@H](CC(=O)O)c2ccn3c(C(F)(F)F)nnc3c2C)cc1CN1C[C@@H]2CN(C)CCN2c2ncccc2S1(=O)=O` (single isomer, unassigned) [Example 178, (*S)-3-(4-Methyl-3-(((S)-9-methyl-5,5-dioxido-7,7a,8,9,10,11-hexahydro-6H-pyrazino[2,1-d]pyrido[2,3-f][1,2,5]thiadiazepin-6-yl)methyl)phenyl)-3-(8-methyl-3-(trifluoromethyl)-[1,2,4]triazolo[4,3-a]pyridin-7-yl)propanoic Acid] displayed an EC50 in assay [1] of 440 nM. Also, the Kd in assay [2] is 30 nM.

In assay [1], `Cc1ccc([C@@H](CC(=O)O)c2ccn3c(C(F)(F)F)nnc3c2C)cc1CN1C[C@@H]2CN(C)CCN2c2ncccc2S1(=O)=O` (single isomer, unassigned) [Example 179, (*R)-3-(4-Methyl-3-(((*S)-9-methyl-5,5-dioxido-7,7a,8,9,10,11-hexahydro-6H-pyrazino[2,1-d]pyrido[2,3-f][1,2,5]thiadiazepin-6-yl)methyl)phenyl)-3-(8-methyl-3-(trifluoromethyl)-[1,2,4]triazolo[4,3-a]pyridin-7-yl)propanoic Acid] gave an EC50 of 2040 nM. Moreover, in assay [2], the Kd was 58 nM.

Turning to `Cc1ccc([C@H](CC(=O)O)c2ccn3c(C(F)(F)F)nnc3c2C)cc1CN1C[C@H]2CN(C)CCN2c2ncccc2S1(=O)=O` (single isomer, unassigned) [Example 181, (*S)-3-(4-Methyl-3-(((*R)-9-methyl-5,5-dioxido-7,7a,8,9,10,11-hexahydro-6H-pyrazino[2,1-d]pyrido[2,3-f][1,2,5]thiadiazepin-6-yl)methyl)phenyl)-3-(8-methyl-3-(trifluoromethyl)-[1,2,4]triazolo[4,3-a]pyridin-7-yl)propanoic Acid], in assay [1], the EC50 is 1110 nM. Moreover, the Kd in assay [2] came out at 110 nM.

In turn, `Cc1ccc([C@@H](CC(=O)O)c2ccn3c(C(F)(F)F)nnc3c2C)cc1CN1C[C@H]2CN(C)CCN2c2ncccc2S1(=O)=O` (single isomer, unassigned) [Example 182, (*R)-3-(4-Methyl-3-(((*R)-9-methyl-5,5-dioxido-7,7a,8,9,10,11-hexahydro-6H-pyrazino[2,1-d]pyrido[2,3-f][1,2,5]thiadiazepin-6-yl)methyl)phenyl)-3-(8-methyl-3-(trifluoromethyl)-[1,2,4]triazolo[4,3-a]pyridin-7-yl)propanoic Acid] showed an EC50 in assay [1] of 1390 nM. The Kd in assay [2] was 180 nM.

Turning to `Cc1ccc([C@H](CC(=O)O)c2ccn3c(C(F)(F)F)nnc3c2C)cc1CN1CC2(CC2)N(C)c2ncccc2S1(=O)=O` (single isomer, unassigned) [Example 184, (*S)-3-(4-Methyl-3-((5′-methyl-1′,1′-dioxido-5′H-spiro[cyclopropane-1,4′-pyrido[2,3-f][1,2,5]thiadiazepin]-2′(3′H)-yl)methyl)phenyl)-3-(8-methyl-3-(t*rifluoromethyl)-[1,2,4]triazolo[4,3-a]pyridin-7-yl)propanoic Acid], in assay [1], the EC50 came out at 130 nM. The Kd in assay [2] was determined as 1.4 nM.
